The source of these data is patent US5744462A, “Steroids useful as anti-cancer and anti-obesity agents” (Research Corporation Technologies, Inc., priority 1995, dated 1998).

The conditions of experiment [1]: long term treatment, NZB mice; cited from earlier work.
The test system of experiment [2] is many different cell lines. The note with it: 10^-5 M to 10^-4 M; cited from earlier work.
For experiment [3] the following is noted: daily approximately 400 mg/kg, long-term; cited from earlier work.
The conditions of experiment [4]: topical, complete carcinogenesis model; cited from earlier work.
For experiment [5] the following is noted: DMBA-initiated and TPA-promoted; cited from earlier work.
Experiment [6] can be described thus: Anti-weight effect in mice, general statements. The experiment is classed as in vivo, mouse. From the text: (Table 9 vs Table 5 and Table 6). […] Thus the cancer preventive the cancer preventive effect of DHEA may result indirectly from its anti-weight action rather than from a direct effect of DHEA or target cells.
Experiment [7] deals with mouse epidermis (TPA stimulated 3H-thymidine incorporation). The experiment in a line: TPA stimulation of 3H-thymidine incorporation in mouse epidermis, oral steroid. The experiment is classed as in vivo, mouse (male ICR). The protocol: Tumor promoters, such as TPA, stimulate hyperplasia and DNA synthesis when applied to the skin, and it is believed that this stimulation is an important step in the enhancement of tumorigenesis.
Male ICR mice were orally intubated with steroid suspended in sesame oil (0.5 ml/mouse) at the indicated dose. Mice not receiving steroid were given sesame oil alone. One hour later mice received topical application of TPA and 20 hours later the rate of ^3 H-thymidine incorporation into the epidermis was determined as described in Pashko, L. L., Schwartz, A. G., Abou-Gharbia, M., and Swern, D. (1981), Inhibition of DNA synthesis in mouse epidermis and breast epithelium by dehydroepiandrosterone and related steroids, Carcinogenesis, 2,-717-721.
Experimental conditions are the same as in Table 3.
On the technique in general: Uptake of a labelled nucleoside into DNA is a usual measure of proliferation.

The target of experiment [8] is purified bovine adrenal G6PDH (Bos taurus, UniProt F1MMK2). Briefly: G6PDH inhibition test. The experiment is classed as biochemical. The note with it: individual determinations. From the text:
The compound listed below are screened as inhibitors of purified bovine adrenal G6PDH activity as one predictor of cancer preventive action. The assay for testing the inhibition of purified bovine adrenal G6PDH is according to the procedure by Oertell, G. W. and Rebelein, I. in Biochem. Biophys. Acta, 184, 459-460 (1969).

Experiment [9] is described as follows: Anti-obesity action, body weight, female Balb/c mice. The note with it: 0.25% in diet. It is filed as in vivo, mouse (female Balb/c). Here is the method:
Female Balb/c (8 weeks old) mice were obtained from
the Jackson Laboratory and were housed in polycarbonate cages
(6 mice/cage) in animal quarters maintained at 24 ± 1° C. with
12 hours of light and 12 hours of darkness each day. One
week after arrival, the mice were placed on a diet containing
either DHEA, 8354, or without steroid. Animals were weighed

Sequence of purified bovine adrenal G6PDH (F1MMK2 31-70): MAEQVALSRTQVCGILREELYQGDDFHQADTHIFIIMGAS
Sequence of purified bovine adrenal G6PDH (F1MMK2 101-575): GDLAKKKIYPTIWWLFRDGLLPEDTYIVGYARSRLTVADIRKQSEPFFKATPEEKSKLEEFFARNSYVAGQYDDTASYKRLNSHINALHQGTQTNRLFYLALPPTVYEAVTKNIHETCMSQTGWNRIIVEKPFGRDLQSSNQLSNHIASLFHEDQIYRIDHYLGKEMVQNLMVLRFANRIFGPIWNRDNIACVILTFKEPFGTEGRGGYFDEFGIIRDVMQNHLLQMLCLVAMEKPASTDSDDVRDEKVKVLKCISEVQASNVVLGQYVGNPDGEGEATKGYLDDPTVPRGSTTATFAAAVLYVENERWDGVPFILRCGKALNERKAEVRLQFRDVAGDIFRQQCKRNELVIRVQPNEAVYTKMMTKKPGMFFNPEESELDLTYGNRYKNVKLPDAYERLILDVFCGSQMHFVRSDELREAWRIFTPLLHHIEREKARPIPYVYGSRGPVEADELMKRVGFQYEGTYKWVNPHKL

On to `C[C@]12CC[C@H](O)CC1=CC[C@@H]1[C@@H]2CC[C@]2(C)C(=O)CC[C@@H]12` [DHEA, Dehydroepiandrosterone], for which the “rate of development of the autoimmune anemia” value in [1] is reported as “significantly inhibits the rate of development of the autoimmune anemia”. In addition, the “growth of cell lines in culture” value in experiment [2] is “slows the growth of many different cell lines in culture”. Further, the “development of breast, lung, and colon tumors” value in [3] was “inhibit the development of breast, lung, and colon tumors”. Besides, in experiment [4], the “DMBA produced papillomas and carcinomas” value was “inhibits DMBA produced papillomas and carcinomas”. The skin papilloma formation entry in experiment [5] was “inhibit”. Also, the anti-weight effect entry in [6] (approximately 400 mg/kg daily, repeatedly over a few weeks) was “produces an anti-weight effect”. Further, the “effect on weight: cause of the anti-weight effect” value in experiment [6] (four weeks, 400 mg/kg) was “due to both a reduction in food intake and to a decrease in the efficiency of food utilization”. In [7] (Table 9, oral 400 mg/kg, no steroid 55.1, TPA alone 118), the “SPECIFIC ACTIVITY, TPA stimulated 3H-thymidine incorporation” value is listed as 50.9 ± 3.2 cpm/ug DNA. In experiment [7] (oral, mice, doses well below 400 mg/kg, comparable to food restriction), the “effect on TPA stimulation in 3H-thymidine incorporation” value is “inactive”. In addition, in experiment [7] (single administration, 400 mg/kg, mice, compared with food restriction or topical 400 ug DHEA), the “effect on TPA stimulation of 3H-thymidine incorporation” value was “does not inhibit the TPA stimulation in epidermal ^3 H-thymidine incorporation to a degree comparable”. Moreover, the “Percent Inhibition of G6PDH” value in experiment [8] (10^-5 M) worked out at 57%. Also, the inhibition at 10 µM in experiment [8] (10^-5 M, read-out: Percent Inhibition of G6PDH) amounted to 53%. In experiment [8] (10^-6 M, read-out: Percent Inhibition of G6PDH), the inhibition at 1 µM turned out to be 17%. Further, the “mean weekly weight ± S.D.” value was determined as 17.5 ± 1.5 grams in experiment [9] (week 0, control 17.5 ± 1.4); 20.0 ± 0.9 grams in [9] (week 1, control 19.9 ± 1.2); 20.6 ± 0.9 grams in experiment [9] (week 2, control 20.6 ± 1.0); 21.3 ± 1.3 grams in [9] (week 3, control 21.8 ± 0.8).

Broadly, the inhibition is the share of the control response that was lost under treatment.
